Results taken from patent US20080009418A1, “Selective Inhibitors” (Alchemia LTD., priority 2004, published 2008).

Experiments:
[1] = target: T1, Human neuropeptide Y (NPY-Y1) (Homo sapiens, UniProt P25929); assay: Radioligand binding, human neuropeptide Y NPY-Y1 membranes, FlashPlate, [125I]-PYY; details: compound at 10 μM, [125I]-PYY; for A9: inhibition of radioligand binding: human NPY-Y1 membranes
T1 construct: purchased Perkin Elmer Biosignal
T1 sequence (P25929 1-384): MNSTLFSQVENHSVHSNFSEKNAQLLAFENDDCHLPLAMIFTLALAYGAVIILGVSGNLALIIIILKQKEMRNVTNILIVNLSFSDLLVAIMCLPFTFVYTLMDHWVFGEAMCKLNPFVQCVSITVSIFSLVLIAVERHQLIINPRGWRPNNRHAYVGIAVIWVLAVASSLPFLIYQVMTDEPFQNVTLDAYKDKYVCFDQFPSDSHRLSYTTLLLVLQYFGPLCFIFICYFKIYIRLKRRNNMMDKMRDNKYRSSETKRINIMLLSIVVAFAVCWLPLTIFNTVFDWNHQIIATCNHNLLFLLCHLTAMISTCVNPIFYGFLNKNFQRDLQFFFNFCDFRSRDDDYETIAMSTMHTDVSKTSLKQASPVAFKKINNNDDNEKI
In short: (§1)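 Cloned human receptor membranes were coated onto FlashPlate wells and incubated with radioligand and compound (added from a 0.5 mM DMSO daughter plate) for 1 hour at room temperature in the dark. Scintillation counting gave percent inhibition, with DMSO defining total and reference ligand defining non-specific binding.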

Human μ-opioid (MOP) = target: T2, Human μ-opioid (MOP) (Homo sapiens, UniProt P35372); assay: Radioligand binding, human μ-opioid (MOP) membranes, FlashPlate, [3H]-Naloxone; details: compound at 10 μM, [3H]-Naloxone; for A7: inhibition of radioligand binding: human MOP membranes, 10 µM
T2 construct: purchased Perkin Elmer Biosignal
T2 sequence (P35372 whole entry): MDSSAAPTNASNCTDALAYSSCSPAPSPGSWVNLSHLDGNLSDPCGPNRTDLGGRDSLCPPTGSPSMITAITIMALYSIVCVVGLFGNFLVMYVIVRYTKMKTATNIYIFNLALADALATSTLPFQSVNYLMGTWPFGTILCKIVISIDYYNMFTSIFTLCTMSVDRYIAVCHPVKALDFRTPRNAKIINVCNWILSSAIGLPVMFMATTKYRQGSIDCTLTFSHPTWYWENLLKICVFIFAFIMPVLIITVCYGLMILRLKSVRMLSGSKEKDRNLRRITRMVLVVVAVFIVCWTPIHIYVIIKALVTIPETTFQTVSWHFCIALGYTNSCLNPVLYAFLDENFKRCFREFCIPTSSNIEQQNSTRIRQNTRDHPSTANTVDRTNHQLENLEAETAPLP
In short: as §1

[2] = target: T3, Human melanin-concentrating hormone (MCH1) (Homo sapiens, UniProt Q99705); assay: Radioligand binding, human melanin-concentrating hormone MCH1 membranes, FlashPlate, [125I]-S36057; details: compound at 10 μM; for A6: inhibition of radioligand binding: [125I]-S36057, human MCH1 membranes; for A6 radioligand binding, percentage inhibition: [125I]-S36057
T3 construct: purchased Perkin Elmer Biosignal
T3 sequence (Q99705 whole entry): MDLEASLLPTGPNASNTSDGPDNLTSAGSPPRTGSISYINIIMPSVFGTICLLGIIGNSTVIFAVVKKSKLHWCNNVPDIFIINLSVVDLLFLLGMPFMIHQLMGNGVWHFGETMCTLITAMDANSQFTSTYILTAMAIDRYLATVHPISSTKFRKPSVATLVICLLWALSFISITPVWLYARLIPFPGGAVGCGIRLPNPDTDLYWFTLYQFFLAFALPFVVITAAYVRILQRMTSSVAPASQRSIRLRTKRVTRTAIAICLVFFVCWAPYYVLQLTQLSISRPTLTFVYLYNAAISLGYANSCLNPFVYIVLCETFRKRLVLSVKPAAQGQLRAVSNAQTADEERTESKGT
In short: as §1

Human Melanocortin (MC4) = target: T4, Human Melanocortin (MC4) (Homo sapiens, UniProt P32245); assay: Radioligand binding, human melanocortin MC4 membranes, FlashPlate, [125I]-NDP-αMSH; details: compound at 10 μM, [125I]-NDP-αMSH; for A4: inhibition of radioligand binding: human MC4 membranes, 10 µM
T4 construct: purchased Perkin Elmer Biosignal
T4 sequence (P32245 whole entry): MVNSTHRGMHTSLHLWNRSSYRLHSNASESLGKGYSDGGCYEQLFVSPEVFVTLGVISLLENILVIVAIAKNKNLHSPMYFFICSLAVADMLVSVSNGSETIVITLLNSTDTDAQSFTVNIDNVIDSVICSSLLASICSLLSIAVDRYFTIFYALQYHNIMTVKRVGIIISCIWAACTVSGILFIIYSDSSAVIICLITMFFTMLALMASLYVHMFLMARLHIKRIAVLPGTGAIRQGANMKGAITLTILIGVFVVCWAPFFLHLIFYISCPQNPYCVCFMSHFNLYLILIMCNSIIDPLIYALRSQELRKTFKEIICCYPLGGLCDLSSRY
In short: as §1

Human κ-Opioid (KOP) = target: T5, Human κ-Opioid (KOP) (Homo sapiens, UniProt P41145); assay: Radioligand binding, human κ-opioid (KOP) membranes, filtration, [3H]-Diprenorphine; details: compound at 10 μM, [3H]-Diprenorphine; for A2: inhibition of radioligand binding: human KOP membranes
T5 construct: purchased Perkin Elmer Biosignal
T5 sequence (P41145 whole entry): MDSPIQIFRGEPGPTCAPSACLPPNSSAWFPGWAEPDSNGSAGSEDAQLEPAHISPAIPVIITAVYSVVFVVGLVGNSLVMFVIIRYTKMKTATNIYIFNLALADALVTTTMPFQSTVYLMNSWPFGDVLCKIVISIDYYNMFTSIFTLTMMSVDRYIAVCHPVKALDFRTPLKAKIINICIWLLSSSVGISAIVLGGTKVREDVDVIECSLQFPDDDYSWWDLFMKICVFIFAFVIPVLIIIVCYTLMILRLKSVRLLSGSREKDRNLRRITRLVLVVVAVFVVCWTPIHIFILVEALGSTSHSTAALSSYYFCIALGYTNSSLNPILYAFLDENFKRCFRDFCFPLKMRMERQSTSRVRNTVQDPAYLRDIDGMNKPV
In short: (§2)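 Percent inhibition of radioligand binding measured on recombinant human membranes: NK1 with [125I]-Substance P, KOP with [3H]-Diprenorphine. Incubation 1 h at room temperature, then harvest onto 0.3% PEI-soaked filters, cold Tris-HCl pH 7.4 washes and scintillation counting; non-specific binding from reference ligand wells.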

Mouse urotensin (mUR2) = target: T6, Mouse urotensin (mUR2) (Mus musculus, UniProt Q8VIH9); assay: Radioligand binding, mouse urotensin mUR2 membranes, FlashPlate, [125I]-Urotensin II; details: compound at 10 μM, [125I]-Urotensin II; for A11: inhibition of radioligand binding: mouse mUR2 membranes
T6 construct: purchased Perkin Elmer Biosignal
T6 sequence (Q8VIH9 1-385): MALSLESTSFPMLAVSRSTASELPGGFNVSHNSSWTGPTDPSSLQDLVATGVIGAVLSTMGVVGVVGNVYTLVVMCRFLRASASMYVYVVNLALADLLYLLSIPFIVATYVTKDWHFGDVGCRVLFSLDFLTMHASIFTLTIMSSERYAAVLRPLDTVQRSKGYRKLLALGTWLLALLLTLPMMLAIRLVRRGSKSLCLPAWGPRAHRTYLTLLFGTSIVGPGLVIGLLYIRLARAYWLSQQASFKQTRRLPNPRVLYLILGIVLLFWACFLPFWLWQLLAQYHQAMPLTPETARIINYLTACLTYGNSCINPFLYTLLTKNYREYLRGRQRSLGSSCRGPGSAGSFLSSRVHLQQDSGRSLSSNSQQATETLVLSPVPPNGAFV
In short: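 Cloned mouse urotensin (mUR2) receptor membranes from Perkin Elmer Biosignal were immobilized in FlashPlate microplates using a proprietary coating. Each well got 19.5 μl buffer, then 0.5 μl of DMSO, reference ligand, or compound. Adding 5 μl of [125I]-Urotensin II, diluted to 5× final concentration in binding buffer, started binding. Plates were sealed with TopSeal-A and incubated 1 hour at room temperature in the dark. Wells were counted for 30 seconds each on a TopCount after a 60-second delay, and percentage inhibition was calculated.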

Human δ-opioid (DOP) = target: T7, Human δ-opioid (DOP) (Homo sapiens, UniProt P41143); assay: Radioligand binding, human δ-opioid (DOP) membranes, FlashPlate, [3H]-Bremazocine; details: compound at 10 μM, [3H]-Bremazocine; for A1: inhibition of radioligand binding: human DOP membranes
T7 construct: purchased Perkin Elmer Biosignal
T7 sequence (P41143 whole entry): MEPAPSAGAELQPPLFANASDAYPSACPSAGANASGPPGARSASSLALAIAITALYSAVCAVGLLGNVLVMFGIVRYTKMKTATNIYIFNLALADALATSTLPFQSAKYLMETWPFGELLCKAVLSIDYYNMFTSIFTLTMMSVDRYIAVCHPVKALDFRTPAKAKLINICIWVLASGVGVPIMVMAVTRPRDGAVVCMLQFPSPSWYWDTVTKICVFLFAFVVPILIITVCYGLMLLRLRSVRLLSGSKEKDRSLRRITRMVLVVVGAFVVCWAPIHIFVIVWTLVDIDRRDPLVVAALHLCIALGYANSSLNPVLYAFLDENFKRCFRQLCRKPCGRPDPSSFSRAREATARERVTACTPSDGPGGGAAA
In short: as §1

Human Melanocortin (MC3) = target: T8, Human Melanocortin (MC3) (Homo sapiens, UniProt P41968); assay: Radioligand binding, human melanocortin MC3 membranes, FlashPlate, [125I]-NDP-αMSH; details: compound at 10 μM, [125I]-NDP-αMSH; for A3: inhibition of radioligand binding: human MC3 membranes
T8 construct: purchased Perkin Elmer Biosignal
T8 sequence (P41968 whole entry): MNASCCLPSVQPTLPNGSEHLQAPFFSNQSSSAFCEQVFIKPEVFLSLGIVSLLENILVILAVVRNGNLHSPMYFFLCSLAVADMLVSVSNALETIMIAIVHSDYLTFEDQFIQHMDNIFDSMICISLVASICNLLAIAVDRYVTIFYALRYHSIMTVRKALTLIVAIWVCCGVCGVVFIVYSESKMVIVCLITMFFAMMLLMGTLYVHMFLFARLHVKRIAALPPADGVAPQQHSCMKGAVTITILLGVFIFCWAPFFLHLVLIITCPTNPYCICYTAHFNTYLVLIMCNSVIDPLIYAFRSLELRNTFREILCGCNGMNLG
In short: as §1

Human neurokinin (NK1) = target: T9, Human neurokinin (NK1) (Homo sapiens, UniProt P25103); assay: Radioligand binding, human neurokinin NK1 membranes, filtration, [125I]-Substance P; details: compound at 10 μM, [125I]-Substance P; for A8: inhibition of radioligand binding: human NK1 membranes
T9 construct: purchased Perkin Elmer Biosignal
T9 sequence (P25103 whole entry): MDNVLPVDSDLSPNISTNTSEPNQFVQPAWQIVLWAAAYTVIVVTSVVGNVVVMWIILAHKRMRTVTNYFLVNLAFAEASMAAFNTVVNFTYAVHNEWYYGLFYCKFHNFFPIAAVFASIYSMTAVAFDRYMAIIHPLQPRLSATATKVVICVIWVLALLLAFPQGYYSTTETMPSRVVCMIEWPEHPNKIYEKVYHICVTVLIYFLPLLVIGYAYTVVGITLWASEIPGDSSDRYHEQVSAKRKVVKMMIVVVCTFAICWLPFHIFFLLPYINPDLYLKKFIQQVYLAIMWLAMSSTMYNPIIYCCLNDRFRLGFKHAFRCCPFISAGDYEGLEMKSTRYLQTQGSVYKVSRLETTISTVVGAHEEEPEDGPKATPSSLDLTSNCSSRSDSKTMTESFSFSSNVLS
In short: as §2

Human melanocortin (MC5) = target: T10, Human melanocortin (MC5) (Homo sapiens, UniProt P33032); assay: Radioligand binding, human melanocortin MC5 membranes, FlashPlate, [125I]-NDP-αMSH; details: compound at 10 μM, [125I]-NDP-αMSH; for A5: inhibition of radioligand binding: human MC5 membranes
T10 construct: purchased Perkin Elmer Biosignal
T10 sequence (P33032 whole entry): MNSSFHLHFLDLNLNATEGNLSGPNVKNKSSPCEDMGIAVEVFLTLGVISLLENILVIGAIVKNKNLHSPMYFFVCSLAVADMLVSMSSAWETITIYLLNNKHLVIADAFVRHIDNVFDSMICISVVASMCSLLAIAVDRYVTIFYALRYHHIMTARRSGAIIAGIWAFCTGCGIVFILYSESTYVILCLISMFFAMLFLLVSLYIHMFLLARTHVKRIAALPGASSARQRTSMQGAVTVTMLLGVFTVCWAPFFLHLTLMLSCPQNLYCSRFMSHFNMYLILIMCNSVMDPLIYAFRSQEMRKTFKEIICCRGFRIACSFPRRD
In short: as §1

Human opioid (ORL1) = target: T11, Human opioid (ORL1) (Homo sapiens, UniProt P41146); assay: Radioligand binding, human opioid ORL1 membranes, FlashPlate, [125I]-Nociceptin; details: compound at 10 μM, [125I]-Nociceptin; for A10: inhibition of radioligand binding: human ORL1 membranes, 10 µM
T11 construct: purchased Perkin Elmer Biosignal
T11 sequence (P41146 whole entry): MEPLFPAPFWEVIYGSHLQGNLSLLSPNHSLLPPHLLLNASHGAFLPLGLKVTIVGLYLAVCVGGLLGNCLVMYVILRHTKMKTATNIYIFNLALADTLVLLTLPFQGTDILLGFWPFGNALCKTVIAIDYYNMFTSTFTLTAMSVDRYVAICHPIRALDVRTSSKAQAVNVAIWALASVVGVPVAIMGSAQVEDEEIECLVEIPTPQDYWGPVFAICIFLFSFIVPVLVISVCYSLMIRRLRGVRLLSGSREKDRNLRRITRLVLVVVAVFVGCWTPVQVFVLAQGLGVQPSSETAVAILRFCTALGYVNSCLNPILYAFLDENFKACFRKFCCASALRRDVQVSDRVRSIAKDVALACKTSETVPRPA
In short: as §1

Compound | A9: inhibition of radioligand binding [1] | A7: inhibition of radioligand binding (Human μ-opioid (MOP)) | A4: inhibition of radioligand binding (Human Melanocortin (MC4)) | A2: inhibition of radioligand binding (Human κ-Opioid (KOP)) | A11: inhibition of radioligand binding (Mouse urotensin (mUR2)) | A1: inhibition of radioligand binding (Human δ-opioid (DOP)) | A3: inhibition of radioligand binding (Human Melanocortin (MC3)) | A8: inhibition of radioligand binding (Human neurokinin (NK1)) | A10: inhibition of radioligand binding (Human opioid (ORL1)) | A9 radioligand binding, percentage inhibition [1] | A7 radioligand binding, percentage inhibition (Human μ-opioid (MOP)) | A6 radioligand binding, percentage inhibition [2] | A4 radioligand binding, percentage inhibition (Human Melanocortin (MC4)) | A2 radioligand binding, percentage inhibition (Human κ-Opioid (KOP)) | A11 radioligand binding, percentage inhibition (Mouse urotensin (mUR2)) | A1 radioligand binding, percentage inhibition (Human δ-opioid (DOP)) | A3 radioligand binding, percentage inhibition (Human Melanocortin (MC3)) | A8 radioligand binding, percentage inhibition (Human neurokinin (NK1)) | A5 radioligand binding, percentage inhibition (Human melanocortin (MC5)) | A10 radioligand binding, percentage inhibition (Human opioid (ORL1)) | also measured
NCCCC(=O)NC1C(OCc2ccc3ccccc3c2)OC(COCc2ccccc2)C(O)C1OCc1ccccc1 (stereo not shown) [compound 397] | − (“−” indicates less than 50% inhibition at 10 μM) | − (“−” indicates less than 50% inhibition at 10 μM) | + (“+” indicates greater than 50% inhibition at 10 μM) | − (“−” indicates less than 50% inhibition at 10 μM) | − (“−” indicates less than 50% inhibition at 10 μM) | − (“−” indicates less than 50% inhibition at 10 μM) | − (“−” indicates less than 50% inhibition at 10 μM) | + (“+” indicates greater than 50% inhibition at 10 μM) | + (“+” indicates greater than 50% inhibition at 10 μM) |  |  |  |  |  |  |  |  |  |  |  | A6: inhibition of radioligand binding [2]: − (“−” indicates less than 50% inhibition at 10 μM); A5: inhibition of radioligand binding (Human melanocortin (MC5)): − (“−” indicates less than 50% inhibition at 10 μM)
CO[C@H]1[C@H](O)[C@@H](COCc2ccc(-c3ccccc3)cc2)OC(OCCc2ccccc2)[C@@H]1NC(=O)CCCN (stereo partly shown) [compound 111] |  |  |  |  |  |  |  |  |  | − (“−” indicates less than 50% inhibition at 10 μM) | − (“−” indicates less than 50% inhibition at 10 μM) | − (“−” indicates less than 50% inhibition at 10 μM) | − (“−” indicates less than 50% inhibition at 10 μM) | − (“−” indicates less than 50% inhibition at 10 μM) | − (“−” indicates less than 50% inhibition at 10 μM) | − (“−” indicates less than 50% inhibition at 10 μM) | − (“−” indicates less than 50% inhibition at 10 μM) | + (“+” indicates greater than 50% inhibition at 10 μM) | − (“−” indicates less than 50% inhibition at 10 μM) | − (“−” indicates less than 50% inhibition at 10 μM) | 
COC[C@H]1OC(OCc2ccc(Cl)cc2)[C@H](NC(=O)CCNC(=N)N)[C@@H](OCc2cccc(O)c2)[C@@H]1O (stereo partly shown) [compound 138] |  |  |  |  |  |  |  |  |  | − (“−” indicates less than 50% inhibition at 10 μM) | + (“+” indicates greater than 50% inhibition at 10 μM) | − (“−” indicates less than 50% inhibition at 10 μM) | − (“−” indicates less than 50% inhibition at 10 μM) | − (“−” indicates less than 50% inhibition at 10 μM) | − (“−” indicates less than 50% inhibition at 10 μM) | + (“+” indicates greater than 50% inhibition at 10 μM) | − (“−” indicates less than 50% inhibition at 10 μM) | − (“−” indicates less than 50% inhibition at 10 μM) | − (“−” indicates less than 50% inhibition at 10 μM) | − (“−” indicates less than 50% inhibition at 10 μM) | 
CO[C@H]1[C@H](O)[C@@H](COCc2ccc3ccccc3c2)OC(OCc2cccc(O)c2)[C@@H]1NC(=O)CCCNC(=N)N (stereo partly shown) [compound 168] |  |  |  |  |  |  |  |  |  | − (“−” indicates less than 50% inhibition at 10 μM) | + (“+” indicates greater than 50% inhibition at 10 μM) | − (“−” indicates less than 50% inhibition at 10 μM) | − (“−” indicates less than 50% inhibition at 10 μM) | − (“−” indicates less than 50% inhibition at 10 μM) | − (“−” indicates less than 50% inhibition at 10 μM) | − (“−” indicates less than 50% inhibition at 10 μM) | − (“−” indicates less than 50% inhibition at 10 μM) | + (“+” indicates greater than 50% inhibition at 10 μM) | − (“−” indicates less than 50% inhibition at 10 μM) | − (“−” indicates less than 50% inhibition at 10 μM) | 
NCCCC(=O)NC1C(OCc2ccc3ccccc3c2)OC(COCc2ccccc2)C(O)C1OCc1ccc(Cl)cc1 (single isomer, unassigned) [compound 457] | − (“−” indicates less than 50% inhibition at 10 μM) | + (“+” indicates greater than 50% inhibition at 10 μM) | − (“−” indicates less than 50% inhibition at 10 μM) | − (“−” indicates less than 50% inhibition at 10 μM) | − (“−” indicates less than 50% inhibition at 10 μM) | − (“−” indicates less than 50% inhibition at 10 μM) | − (“−” indicates less than 50% inhibition at 10 μM) | + (“+” indicates greater than 50% inhibition at 10 μM) | + (“+” indicates greater than 50% inhibition at 10 μM) |  |  |  |  |  |  |  |  |  |  |  | A6: inhibition of radioligand binding ([2]; 10 µM): − (“−” indicates less than 50% inhibition at 10 μM); A5: inhibition of radioligand binding (Human melanocortin (MC5); 10 µM): − (“−” indicates less than 50% inhibition at 10 μM)
